Source: patent publication US10472352B2, “Rac inhibitors” (Geneyus LLC, priority 2017, dated 2019)

Legend:
Rac1 protein = biological target: T1, Rac1 protein (Homo sapiens, UniProt P63000); experiment: Fluorescence Polarization Assay (Rac1 FP); assay type: binding; conditions: 125 nM his-tagged Rac1, 12.5 nM Bodipy-TR GTPγS, 30 minutes at 37° C.
T1 construct: purchased Cytoskeleton Inc. RC01
Experimental: Direct binding of Rac1 compound inhibitors to Rac1 protein was performed using fluorescence polarization (FP). Briefly, Rac1 inhibitors were initially dissolved in DMSO and then serial drug dilutions in exchange buffer (20 mM Tris pH 7.5, 50 mM NaCl, 1 mM MgCl, 1 mM EDTA) were prepared in a flat black 96-well half-area plate (Greiner). Recombinant his-tagged Rac1 protein (Cytoskeleton Inc. Cat. # RC01) was added to the inhibitors at a final concentration of 125 nM along with 12.5 nM Bodipy-TR GTPγS (Life Technologies Inc. Cat. # G35780) in exchange buffer and incubated for 30 minutes at 37° C. in exchange buffer. After 30 minutes of incubation. FP was measured on the M1000 Pro (Tecan) fluorescent plate reader with 590 nm±5 nm excitation and 625 nm±5 nm emission spectra settings.

HUVECs [1] = experiment: Cellular Proliferation Assay; assay type: cell-based; conditions: 25 uM, cells counted day 0 through day 4
Experimental: 25,000 cells were seeded in 6-well plates. The next day, vehicle (DMSO) or 25 μM 0032253 was added to cells (Day 0). Cells were counted on days 0 through day 4 using a hemocytometer.

[2] = test system: MCF-7 human breast cancer cell line; experiment: Cell Viability Assay (MCF7), PrestoBlue; assay type: cell-based; conditions: MCF7, 72 h, MCF-7 cells, three days after drug treatment
Experimental: In order to determine a compound's effect on cell viability, PrestoBlue assays were performed as previously described by Kuhn et al. (2013) with modifications. MCF-7 human breast cancer and IGR-1 human melanoma cell lines were seeded into 96-well plates 24 hours prior to addition of drug. Cells were treated with 0 to 200 μM (11 concentrations) of compound solubilized in DMSO, adjusting the final concentration of DMSO to 1% in the well. Three days after drug treatment, cell viability was measured by adding PrestoBlue (Life Technologies Ltd.; cat. No. A13262) reagent directly to wells containing media/drug to reach a final concentration of 10%. PrestoBlue is a modified molecule of the common Alamar Blue probe used to determine viability based on the ability of a cell to metabolize a nonfluorescent compound (resazurin) to a florescent molecule (resorufin). Following a 1 hour incubation period, total well fluorescence was measured using the microplate reader M1000 pro (Tecan) with excitation 560-5 nm and emission 590-5 nm. […] The percentage of living cells was then computed by comparison with control wells. Kuhn, Jonas et al., Assay and Drug Development Technologies, March 2013, Label-Free Cytotoxicity Screening Assay by Digital Holographic Microscopy.

HUVECs [3] = experiment: Cell Migration Assay (Boyden chamber); assay type: cell-based; conditions: 5 uM
Experimental: An essential characteristic of malignant cells is their ability to migrate, invade host tissues and to produce metastases. In order to evaluate the capacity of one compound to affect the ability of tumoral cells to migrate, migration assays were performed using HUVEC cells.
HUVECs (2.5×10^4) were seeded onto uncoated filters in a 24-well transwell Boyden chamber ([…]; Costar) and allowed to migrate in the presence and absence of different doses of the Rac1 inhibitor 0032253 (5, 6.25, 10, 12.5, 20, 25 μM). The cells that migrated to the underside of the filter were stained with crystal violet and counted under the bright field microscopy.

HUVECs [4] = experiment: HUVEC Tube Formation Assay; assay type: cell-based; conditions: doses above 6.25 μM, 8 h, Matrigel
Experimental: The endothelial cell tube formation assay is an in vitro assay that is widely accepted to accurately reflect number of terminal stages of the angiogenic process such as attachment, migration and differentiation into tubular structures. In this model, endothelial cells are cultured on a monolayer of reconstituted basement membrane components (Matrigel) and form, in a few hours, capillary-like structure. Therefore, this system is a useful and powerful tool for rapidly screening anti-angiogenic agents by monitoring inhibition of endothelial cells morphogenesis on extracellular matrix.
HUVECs (5×10^3) were seeded on top of Matrigel in a 24-well plate. The cells were treated either with DMSO or different concentrations of the Rac1 inhibitor 0032253 (5, 6.25, 10, 12.5 μM) for 8 h in triplicate. The plates were scanned by LICOR Odyssey Imaging system.

[5] = biological target: His-Rac1 / GST-PBD (PAK Binding Domain) (Homo sapiens, UniProt P63000); experiment: Rac Activation AlphaScreen Assay (Rac1 AS); assay type: biochemical; conditions: 500 nM GTPγS, 37° C., 1 hour; 'positive' = signal generated was higher than the positive control
Experimental: AlphaScreen® assays were performed in 96-well microplates in a final reaction volume of 60 μl. Recombinant His-Rac1, recombinant GST-PBD (PAK Binding Domain), donor and acceptor beads (PerkinElmer), and inhibitors were incubated in exchange buffer (20 mM Tris pH 7.5, 50 mM NaCl, 1 mM MgCl2, 1 mM EDTA, 500 nM GTPγS (guanosine 5′-[γ-thio]triphosphate)) at 37° C. Readings were performed on a Tecan M1000 pro microplate reader after 1 hour.

WM1158 cells = experiment: Western Blot Analysis of phosphorylated AKT, MEK1/2, ERK1/2; assay type: cell-based; conditions: increasing concentrations, two hours, vs DMSO control
Excerpt: Western blot analysis is used to identify specific proteins from a complex mixture of proteins extracted from cells. Equal amount of protein is run on the SDS-PAGE gel and after separating the protein mixture, it is transferred to a membrane. The transferred protein is then probed with a combination of antibodies: one antibody specific to the protein of interest (primary antibody) and another antibody specific to the host species of the primary antibody (secondary antibody). The secondary antibody is complexed with an enzyme, which when combined with an appropriate substrate, will produce a detectable signal.
WM1158 cells were treated with increasing concentrations of 0032253 for two hours. SDS-PAGE was conducted on cell lysates and Western Blot analysis was conducted on samples for total and phosphorylated AKT, MEK1/2, and ERK1/2.

Compound: FC(F)(F)c1ccc2c(SCCCCCCn3cc(CN4CCOCC4)nn3)ccnc2c1 (racemic) [Compound 0032253, 4-({6-[4-(morpholin-4-ylmethyl)-1H-1,2,3-triazol-1-yl]hexyl}sulfanyl)-7-(trifluoromethyl)quinoline]
- IC50 (Rac1 protein): 3.42 µM
- HUVEC proliferation (HUVECs [1]): completely inhibits the ability of HUVECs to proliferate
- IC50 [2]: 4.38 µM
- HUVEC migration through a Boyden Chamber (HUVECs [3]): impairs the ability of HUVECs to migrate through a Boyden Chamber
- HUVEC tube formation (HUVECs [4]): significantly reduce the ability of HUVECs to form tube like structures
- Rac1 AS IC50(uM) [5]: positive
- expression of phosphorylated AKT (WM1158 cells): reduced as compared to DMSO control
- expression of phosphorylated ERK1/2 (WM1158 cells): reduced as compared to DMSO control
- expression of phosphorylated MEK1/2 (WM1158 cells): reduced as compared to DMSO control
